In patent US5491131A, “Somatostatin-active polypeptide composition” (Applied Research Systems ARS Holding NV, priority 1989, dated 1996):
Entries after “also recorded” stand apart in the source; their conditions may differ.

Columns and labels:
[1] = system: rat mesangial cells in culture; assay: Prevention of angiotensin II induced contraction of mesangial cells (cell surface area, CSA); type: cell-based, Wistar rats; details: for effect on contractile effect of angiotensin (CSA): preincubation 10 minutes before angiotensin II 10^-8 M
Experimental: (§1) The mesangial cells were obtained after glomeruli isolation by differential sieving (R. P. Misra. Am. J. Clin. Pathol 1972 58 135-139) and collagenase digestion of kidney tissue from Wistar rats. The cell surface area (CSA) was measured using a digital planimeter.
In experiments concerned with the ability of somatostatin to prevent contraction, the mesangial cells were incubated with somatostatin for ten minutes at a concentration of 10^-6 M or 10^-8 M before the addition of angiotensin II (10^-8 M) or hydrogen peroxide (10^-4 M).
(§2) In all these experiments, control cells lacked the addition of somatostatin, angiotensin II or hydrogen peroxide to the buffer.
(§3) Microphotographs were taken at different times and the CSA measured. Each experiment was repeated three times and a total of 8-15 cells were measured for each part of each experiment. The results are expressed as a percentage increase or decrease over the initial CSA, […].

[2] = system: rat mesangial cells in culture; assay: Reversal of angiotensin II induced contraction of mesangial cells (CSA); type: cell-based, Wistar rats; details: FIG. 3
Experimental: as §1
In experiments concerned with the ability of somatostatin to revese contraction, the mesangial cells were incubated for 30 minutes with either angiotensin II or hydrogen peroxide (at the concentrations mentioned above) before somatostatin at a concentration of 10^-6 M or 10^-8 M was added to the cells.
as §2, §3

[3] = system: rat mesangial cells in culture; assay: Prevention of hydrogen peroxide induced contraction of mesangial cells (CSA); type: cell-based, Wistar rats; details: for effect on hydrogen peroxide induced reduction in CSA: preincubation 10 minutes before hydrogen peroxide 10^-4 M; for change in CSA compared with the control: somatostatin alone
Experimental: as §1, §3

[4] = system: rat mesangial cells in culture; assay: Reversal of hydrogen peroxide induced contraction of mesangial cells (CSA); type: cell-based, Wistar rats; details: for effect on CSA of untreated cells: somatostatin alone
Experimental: as §1, §3

[5] = in vivo; cited from earlier work
guanylate cyclase = details: some cell types; cited from earlier work
[6] = somatostatin infusions of 250 to 375 microgrammes; cited from earlier work

angiotensin II [contractile stimulus added to mesangial cells at 10^-8 M]
effect on CSA ([1]; angiotensin II 10^-8 M alone, after 30 minutes incubation): significantly reducing the CSA | persistence of induced contraction ([2]; angiotensin II 10^-8 M alone): persisted for 60 minutes

OO [hydrogen peroxide]
effect on CSA ([3]; hydrogen peroxide 10^-4 M alone): significant reduction in CSA | contraction of cells treated with only hydrogen peroxide ([4]; hydrogen peroxide 10^-4 M alone, t=0 to t=60 minutes, FIGS. 7, 8, 10): remained in a contracted state; also recorded: contracted to a significant degree

C[C@H](N)C(=O)NCC(=O)N[C@H]1CSSC[C@@H](C(=O)O)NC(=O)[C@H](CO)NC(=O)[C@H]([C@@H](C)O)NC(=O)[C@H](Cc2ccccc2)NC(=O)[C@H]([C@@H](C)O)NC(=O)[C@H](CCCCN)NC(=O)[C@H](Cc2c[nH]c3ccccc23)NC(=O)[C@H](Cc2ccccc2)NC(=O)[C@H](Cc2ccccc2)NC(=O)[C@H](CC(N)=O)NC(=O)[C@H](CCCCN)NC1=O [somatostatin, Somatostatin]
urinary calcium excretion [5]: reduces | cell size in microphotographs ([1]; cells pre-treated with somatostatin before addition of angiotensin II, FIG. 12): substantially no change in the size of these cells | effect on contractile effect of angiotensin (CSA) ([1]; somatostatin 10^-6 M, FIG. 1): completely preventing the contractile effect of angiotensin II; also recorded: completely inhibited the contractile effect of angiotensin | effect on contractile effect of angiotensin (CSA) ([1]; somatostatin 10^-8 M, FIG. 2): the same effect occurs | effect in isolation on CSA ([1]; somatostatin alone, 10^-6 M, FIG. 1): no significant effect | effect on hydrogen peroxide induced reduction in CSA ([3]; somatostatin 10^-6 M, FIG. 5): equally effective in preventing the contractile effect; also recorded: prevented | effect on hydrogen peroxide induced reduction in CSA ([3]; somatostatin 10^-8 M, FIG. 6): prevented | change in CSA compared with the control ([3]; 10^-6 M, FIG. 5): did not in itself induce any significant change in CSA | change in CSA compared with the control ([3]; 10^-8 M, FIG. 6): did not in itself induce any significant change in CSA | intracellular cGMP concentrations (guanylate cyclase): increase intracellular cGMP concentrations | cell size in microphotographs ([4]; hydrogen peroxide at t=0, somatostatin added at t=30 minutes, read at t=60 minutes, FIG. 11): relax to almost their original size | reversal of contractile effect of hydrogen peroxide (CSA) ([4]; somatostatin 10^-6 M added 30 minutes after hydrogen peroxide 10^-4 M, read after a further 30 minutes, FIG. 7): reverses contraction; also recorded: CSA returns to normal | reversal of contractile effect of hydrogen peroxide (CSA) ([4]; somatostatin 10^-8 M added 30 minutes after hydrogen peroxide 10^-4 M, FIG. 8): The same effect was demonstrated | effect on CSA of untreated cells ([4]; 10^-6 M, FIG. 7): did not significantly effect CSA | effect on CSA of untreated cells ([4]; 10^-8 M, FIG. 8): did not significantly effect CSA | change in CSA, incubated in isolation ([2]; somatostatin alone, 10^-6 M): did not observe any significant change in CSA | reduction in heart rate [6]: about 10 beats per minute
